Measured values reported in PMC5571287 (Antimicrobial Agents and Chemotherapy, 2017).
Where two headings read alike, the source gives them in different places.

Columns and labels:
[1] = test system: known RSV A clinical isolates; assay: CPE assays, known RSV A clinical isolates in HEp-2; type: cell-based; conditions: human respiratory syncytial virus, read-out: IC50, range over known RSV A clinical isolates
Protocol: For RSV A 2001/3-12, 1998/3-2, and USU⃥v1225, CPE was induced in HEp-2 cells for 7 days and the plates were then stained with neutral red dye for approximately 2 h. The intracellular incorporated dye was extracted in 50:50 Sorensen citrate buffer-ethanol and the absorbance read on a spectrophotometer. The optical density (OD) of test wells was converted to percentage of cell and virus controls. […] The virus inocula were ∼63 50% cell culture infectious doses (CCID50) per well for 2001/3-12, ∼40 CCID50/well for 1998/3-2, and ∼32 CCID50/well for USU\v1225. This assay was conducted in Utah State University (Logan, UT).
For known clinical strains (RSV A 1997/12-35, 2001/2-20, 200/3-4, and Memphis 37), a 384-well-format resazurin-based CPE assay was conducted.

[2] = test system: RSV B WST; assay: CPE assay, RSV B Washington in HEp-2 cells (resazurin); type: cell-based, respiratory syncytial virus; conditions: human respiratory syncytial virus, HEp-2
[3] = test system: RSVB 1262; conditions: human respiratory syncytial virus
[4] = test system: RSVB 1276; conditions: human respiratory syncytial virus
[5] = test system: RSV A Long; conditions: human respiratory syncytial virus
[6] = test system: RSV A2; assay: Time-of-addition assay and MOI dependency, CPE (methylene blue) in HEp-2; type: cell-based; conditions: human respiratory syncytial virus
[7] = test system: Hepatitis C virus GT1b replicon; assay: microbe, parasite or virus in culture; type: cell-based
[8] = test system: Measles virus (Edmonton strain); assay: microbe, parasite or virus in culture; type: cell-based; conditions: MRC5
[9] = test system: RSVA 689; assay: microbe, parasite or virus in culture; type: cell-based; conditions: human respiratory syncytial virus, RSVA 689, clinical
[10] = test system: RSV B 9320; assay: CPE assay in HEp-2 cells (resazurin); type: cell-based; conditions: human respiratory syncytial virus
[11] = test system: RSVA 1211; assay: microbe, parasite or virus in culture; type: cell-based; conditions: human respiratory syncytial virus, RSVA 1211, clinical
[12] = test system: RSV A2; assay: RSV A2 infection of ALI-cultured human airway epithelial cells, plaque assay of apical wash; type: cell-based, respiratory syncytial virus; conditions: MOI 0.01
Protocol: On the day of infection (day 0), the apical surface of each insert was washed once with 300 μl of sterile PBS and the inserts were then transferred to new 24-well plates containing 780 μl of fresh MucilAir culture medium (Epithelix Sàrl). […] The virus inoculum was removed with a pipette and inserts were washed twice with 300 μl of sterile PBS. A day 0 sample was harvested by adding 300 μl of sterile PBS to the apical surface of each well for 5 min. The 300-μl sample was then removed and transferred to 0.5-ml tubes containing 100 μl of 50% sucrose dissolved in PBS, and the tubes were stored at -80°C. This harvesting procedure was repeated daily until day 7. PC786 was dosed apically onto MucilAir inserts. […] The dosing regimen was performed daily on day 0 to day 6 following each sample collection. On day 5, the basal medium was removed from every well and replenished with fresh MucilAir culture medium as a necessary maintenance step for ALI culture cells. Virus titer in the apical wash samples was determined by plaque assay. […] Cells were washed twice with PBS before 150 μl of secondary antibody (goat anti-mouse HRP conjugate [Dako Ltd., Ely, UK; P044701-2]), diluted 1:400 in blocking buffer, was added to cells for 1 h at RT, with shaking. […] Each well received 150 μl of development substrate (sigmaFAST […]; Sigma-Aldrich) until plaques were visible. Plaques were counted by eye and confirmed using light microscopy.

[13] = HEp-2, read-out: RSV titre in supernatant IC50 (0.3 Log PFUe reduction) (converted)
[14] = HEp-2, read-out: RSV titre in supernatant IC90 (1 Log PFUe reduction) (converted)

With `Cc1cnc(N2CC3(CCOCC3)C2)c(C(=O)Nc2ccc(C(=O)N3CCc4cc(C(=O)Nc5c(C)cccc5F)sc4-c4ccccc43)cc2)c1` [PC786, N-(2-fluoro-6-methylphenyl)-6-(4-(5-methyl-2-(7-oxa-2-azaspiro[3.5]nonan-2-yl)nicotinamido)benzoyl)-5,6-dihydro-4H-benzo[b]thieno[2,3-d]azepine-2-carboxamide] the IC50 [1] was 0.14 to 3.2 nM, the IC50 [2] was 27.3 ± 0.77 nM and the IC90 [2] was 57.1 ± 3.87 nM. For the same compound, the IC50 [3, 13] was 9.36 nM, the IC90 [3, 14] was 12.3 nM and the IC50 [4, 13] was 15.1 nM. It also gave an IC90 [4, 14] of 22.5 nM, an IC50 ([5]; HEp-2, read-out: PCR IC50 (0.3 Log PFUe reduction) (converted)) of 2.65 nM and an IC90 ([5]; HEp-2, read-out: PCR IC90 (1 Log PFUe reduction) (converted)) of 3.45 nM. It also gave an IC50 ([6]; HEp-2, 24 h, MOI 0.02, n = 3, read-out: IC50 at treatment time 24 h postinoculation) of 0.85 nM, an IC50 ([6]; HEp-2, 24 h, MOI 0.1, n = 3, read-out: IC50 at treatment time 24 h postinoculation) of 1.09 nM and an IC50 ([6]; HEp-2, 24 h, MOI 1.0, n = 3, read-out: IC50 at treatment time 24 h postinoculation) of 0.5 nM. For the same compound, the IC50 ([6]; HEp-2, 48 h, read-out: IC50 at treatment time 48 h postinoculation, MOI 0.02, n = 3) was 0.94 nM, the IC50 ([6]; HEp-2, 48 h, read-out: IC50 at treatment time 48 h postinoculation, MOI 0.1, n = 3) was 2.36 nM and the IC50 ([6]; HEp-2, 48 h, read-out: IC50 at treatment time 48 h postinoculation, MOI 1.0, n = 3) was 0.46 nM. It also gave an IC50 ([6]; HEp-2, 72 h, MOI 0.02, n = 3, read-out: IC50 at treatment time 72 h postinoculation) of over 93.4 nM, an IC50 ([6]; HEp-2, 72 h, MOI 0.1, n = 3, read-out: IC50 at treatment time 72 h postinoculation) of over 140 nM and an IC50 ([6]; HEp-2, 72 h, MOI 1.0, n = 3, read-out: IC50 at treatment time 72 h postinoculation) of over 140 nM. For the same compound, the IC50 ([6]; HEp-2, MOI 0.02, n = 3, CPE at 144 h, read-out: IC50 at treatment time 0 h postinoculation) was 0.6 nM, the IC50 ([6]; HEp-2, MOI 0.1, n = 3, CPE at 144 h, read-out: IC50 at treatment time 0 h postinoculation) was 0.99 nM and the IC50 ([6]; HEp-2, MOI 1.0, n = 3, CPE at 144 h, read-out: IC50 at treatment time 0 h postinoculation) was 0.44 nM. For the same compound, the inhibition at 14 µM ([7]; GT1B, Huh-7, HCV replicon assay, at 14 μM, read-out: maximum inhibition achieved) was 74%, the IC50 ([7]; Huh-7, GT1b replicon) was 320 nM and the “IC90 or IC95” value ([7]; Huh-7, GT1b replicon) was over 14 µM. For the same compound, the “IC90 or IC95” value [8] was over 14 µM, the IC50 ([8]; Measles morbillivirus) was over 14 µM and the IC50 ([9]; read-out: CPE IC50) was 0.5 nM. It also gave an IC90 ([9]; read-out: CPE IC90) of 0.6 nM, an IC50 [10] of 29.1 nM and an IC90 [10] of 64.3 nM. The IC50 ([11]; read-out: CPE IC50) was under 0.09 nM, the IC90 ([11]; read-out: CPE IC90) was 1.96 nM and the “viral replication in apical wash (plaque assay)” value ([12]; 5.6 nM apical once daily day 0 to day 6) was “did not peak until day 5”. For the same compound, the “viral replication in apical wash (plaque assay)” value ([12]; 28 nM apical once daily day 0 to day 6) was “viral replication was not detected until day 4” and the “viral quantity in apical wash (plaque assay)” value ([12]; 140 nM apical once daily day 0 to day 6) was “below detectable limits”.
